≈ marks a conversion by molar mass, not a printed value. Values belong to the molecule of their own block, whether it stands above or below them.
How the values were obtained:
[1] = test system: MCF7; assay: Cytotoxicity against human MCF7 cells assessed as lethal dose; assay type: functional; conditions: read-out: LD50 (the source's name)
[2] = Cytotoxicity against HEK293T cells incubated for 72 hrs by MTT assay; assay type: toxicity, cell-based, HEK-293T; conditions: human
[3] = test system: MCF7; assay: Cytotoxicity against human MCF7 cells incubated for 72 hrs by MTT assay; assay type: functional, cell-based; conditions: MCF7, 72 h
[4] = test system: A549; assay: Cytotoxicity against human A549 cells incubated for 72 hrs by MTT assay; assay type: functional, cell-based; conditions: A549, 72 h
[5] = Cytotoxicity against human VA13 cells incubated for 72 hrs by MTT assay; assay type: toxicity, cell-based; conditions: VA13 (WI-38 VA13) cells
[6] = test system: HeLa; assay: Anticancer activity against human HeLa cells measured after 48 hrs by Sulforhodamine B assay; assay type: functional, cell-based
[7] = test system: HepG2; assay: Anticancer activity against human HepG2 cells measured after 48 hrs by Sulforhodamine B assay; assay type: functional, cell-based; conditions: HepG2, 48 h
[8] = test system: T47D; assay: Anticancer activity against human T47D cells measured after 48 hrs by Sulforhodamine B assay; assay type: functional, cell-based
[9] = test system: MCF7; assay: Anticancer activity against human MCF7 cells measured after 48 hrs by Sulforhodamine B assay; assay type: functional, cell-based; conditions: MCF7, 48 h
[10] = test system: HCT-116; assay: Anticancer activity against human HCT-116 cells measured after 48 hrs by Sulforhodamine B assay; assay type: functional, cell-based; conditions: HCT-116, 48 h
[11] = test system: MDA-MB-231; assay: Cytotoxicity against human MDA-MB-231 cells at 50 ug/ml relative to control; assay type: functional; conditions: dose 50 µg/ml
[12] = test system: L929; assay: Cytotoxicity against mouse L929 cells at 50 ug/ml relative to control; assay type: toxicity, cell-based; conditions: at 50 µg/mL
[13] = test system: FaDu; assay: Anticancer activity against human FaDu cells; assay type: functional, cell-based
[14] = test system: Panel NCI-60 (60 carcinoma cell lines); assay: Growth inhibition of human Panel NCI-60 (60 carcinoma cell lines) cells; assay type: functional
[15] = test system: MCF7; assay: Cytotoxicity against human MCF7 cells by MTT assay; assay type: functional, cell-based
[16] = test system: MDA-MB-231; assay: Cytotoxicity against human MDA-MB-231 cells by MTT assay; assay type: functional, cell-based
[17] = test system: A549; assay: Cytotoxicity against human A549 cells by MTT assay; assay type: functional, cell-based
[18] = test system: HBL; assay: Cytotoxicity against human HBL cells by MTT assay; assay type: functional, cell-based
[19] = test system: Erythrocyte; assay: Cytotoxicity against human Erythrocyte by MTT assay; assay type: functional, cell-based
[20] = test system: MCF7; assay: Anticancer activity against human MCF7 cells assessed as reduction in cell viability; assay type: functional, cell-based
[21] = test system: HepG2; assay: Anticancer activity against human HepG2 cells assessed as reduction in cell viability; assay type: functional, cell-based
[22] = test system: MCF7; assay: Antiproliferative activity against human MCF7 cells assessed as cell growth inhibition; assay type: functional, cell-based
[23] = test system: MDA-MB-231; assay: Antiproliferative activity against human MDA-MB-231 cells assessed as cell growth inhibition; assay type: functional, cell-based
[24] = test system: MCF7; assay: Antiproliferative activity against human MCF7 cells assessed as inhibition of cell growth; assay type: functional, cell-based
[25] = test system: A2780; assay: Antiproliferative activity against human A2780 cells assessed as inhibition of cell growth; assay type: functional, cell-based
[26] = test system: HT-29; assay: Antiproliferative activity against human HT-29 cells assessed as inhibition of cell growth; assay type: functional, cell-based
[27] = test system: MCF7; assay: Anticancer activity against human MCF7 cells measured after 72 hrs by SRB assay; assay type: functional, cell-based; conditions: MCF7, 72 h
[28] = test system: HCT-116; assay: Anticancer activity against human HCT-116 cells measured after 72 hrs by SRB assay; assay type: functional, cell-based; conditions: HCT-116, 72 h
[29] = test system: Mahlavu; assay: Anticancer activity against human Mahlavu cells measured after 72 hrs by SRB assay; assay type: functional, cell-based
[30] = test system: Huh-7; assay: Anticancer activity against human Huh-7 cells measured after 72 hrs by SRB assay; assay type: functional, cell-based; conditions: Huh-7, 72 h
[31] = test system: K562; assay: Anticancer activity against human K562 cells; assay type: functional, cell-based
[32] = test system: A549; assay: Anticancer activity against human A549 cells; assay type: functional, cell-based
[33] = test system: PC-3; assay: Anticancer activity against human PC-3 cells; assay type: functional, cell-based
[34] = test system: Caco-2; assay: Antiproliferative activity against human Caco-2 cells incubated for 72 hrs by MTT assay; assay type: functional, cell-based; conditions: Caco-2, 72 h
[35] = test system: HCT-116; assay: Antiproliferative activity against human HCT-116 cells incubated for 72 hrs by MTT assay; assay type: functional, cell-based; conditions: HCT-116, 72 h
[36] = test system: Jurkat; assay: Antiproliferative activity against human Jurkat cells incubated for 72 hrs by MTT assay; assay type: functional, cell-based
[37] = test system: MCF7; assay: Antiproliferative activity against human MCF7 cells incubated for 72 hrs by MTT assay; assay type: functional, cell-based; conditions: MCF7, 72 h
[38] = test system: MDA-MB-231; assay: Antiproliferative activity against human MDA-MB-231 cells incubated for 72 hrs by MTT assay; assay type: functional, cell-based; conditions: MDA-MB-231, 72 h
[39] = test system: HeLa; assay: Antiproliferative activity against human HeLa cells incubated for 72 hrs by MTT assay; assay type: functional, cell-based
[40] = test system: CCRF-CEM; assay: Antiproliferative activity against human CEM cells incubated for 72 hrs by MTT assay; assay type: functional, cell-based
[41] = test system: A549; assay: Antiproliferative activity against human A549 cells incubated for 72 hrs by MTT assay; assay type: functional, cell-based; conditions: A549, 72 h
[42] = test system: MCF7; assay: Cytotoxicity against human MCF7 cells; assay type: functional, cell-based
[43] = test system: HCT-116; assay: Cytotoxicity against human HCT-116 cells assessed a reduction in cell viability; assay type: functional, cell-based
[44] = Cytotoxicity against human H357 cells; assay type: functional, cell-based
[45] = test system: MDA-MB-231; assay: Cytotoxicity against human MDA-MB-231 cells; assay type: functional, cell-based
[46] = test system: HCT-116; assay: Anticancer activity against human HCT-116 cells; assay type: functional, cell-based
[47] = test system: HepG2; assay: Anticancer activity against human HepG2 cells assessed as inhibition of cell growth; assay type: functional, cell-based
[48] = test system: MCF7; assay: Anticancer activity against human MCF7 cells assessed as inhibition of cell growth; assay type: functional, cell-based
[49] = test system: MCF7; assay: Antiproliferative activity against human MCF7 cells by MTT assay; assay type: functional, cell-based
[50] = test system: MDA-MB-231; assay: Antiproliferative activity against human MDA-MB-231 cells assessed as inhibition of cell viability by MTT assay; assay type: functional, cell-based
[51] = test system: PC-3; assay: Antiproliferative activity against human PC-3 cells assessed as inhibition of cell viability by MTT assay; assay type: functional, cell-based
[52] = test system: DU-145; assay: Antiproliferative activity against human DU-145 cells assessed as inhibition of cell viability by MTT assay; assay type: functional, cell-based
[53] = test system: HL-60; assay: Induction of mitochondrial membrane potential loss in human HL-60 cells measured after 72 hrs by TMRM dye based flow cytometric analysis; assay type: functional, cell-based; conditions: HL-60, 72 h
[54] = test system: HL-60; assay: Induction of mitochondrial membrane potential loss in human HL-60 cells measured after 72 hrs by […] based flow cytometric analysis; assay type: functional, cell-based; conditions: HL-60, 72 h

IC50 [6]: 2880 nM | IC50 [7]: 3.08 µM | IC50 [8]: 2980 nM | IC50 [9]: 3.1 µM | IC50 [10]: 2860 nM
SMILES: COc1ccc2c(c1)[C@]1(C(=O)N2)N(C)C[C@@H](c2ccc(F)cc2)[C@@]12CN(C)C/C(=C\c1ccc(F)cc1)C2=O

IC50 [24]: 5.62 µM | IC50 [25]: 310 nM | IC50 [26]: 470 nM
SMILES: O=C1CC2(CCN(S(=O)(=O)c3ccccc3)CC2)Oc2ccccc21

IC50 [31]: 7.4 µM | IC50 [32]: 18.1 µM | IC50 [33]: 17.7 µM
SMILES: CCN(CC)C[C@@]1([C@H]2c3ccccc3[C@@H](O)[C@]23C(=O)N(Cc2ccccc2)c2ccccc23)C(=O)N(Cc2ccccc2)c2ccccc21

IC50 [34]: 47 µM | IC50 [35]: 65.1 µM | IC50 [36]: 2000 nM | IC50 [37]: 2000 nM | IC50 [38]: 4 µM | IC50 [39]: 3000 nM | IC50 [40]: 5 µM | IC50 [41]: 2000 nM
SMILES: CON1c2ccccc2[C@@]2(CN=C(Nc3cc(C(F)(F)F)cc(C(F)(F)F)c3)S2)[C@@H]1Nc1cc(C(F)(F)F)cc(C(F)(F)F)c1

IC50 [46]: 20.5 µg/mL (≈ 43 µM) | IC50 [47]: 19.2 µg/mL (≈ 40.3 µM) | IC50 [48]: 5.8 µg/mL (≈ 12.2 µM)
SMILES: O=C1Nc2ccccc2C12CC(c1cn(S(=O)(=O)c3ccc(Cl)cc3)c3ccccc13)=NN2 (centres undefined)

IC50 [53]: 25.9 µM | IC50 [54]: 32.2 µM
SMILES: O=C1CS/C(=C\C2c3ccccc3Nc3ccccc32)N1N(c1ccccc1)c1ccccc1

IC50 [22]: 42.3 µM | IC50 [23]: 67.9 µM
SMILES: O=C1N(c2ccccc2)C(=O)C2(CC(c3ccccc3O)=NO2)N1C1CCCCC1 (centres undefined)

Further lines, the molecule ahead of its results:

SMILES: COC1=C(Br)[C@@H](O)[C@]2(C=C1Br)CC(C(=O)NCC(O)c1cc(Br)c(OCCCNC(=O)C3=NO[C@]4(C=C(Br)C(OC)=C(Br)[C@@H]4O)C3)c(Br)c1)=NO2 (some centres undefined)
CC50 [1]: 17 µg/mL (≈ 15.5 µM)

SMILES: CN1C[C@H](c2ccc(F)cc2)[C@]2(NC(=O)NC2=O)C12C(=O)Nc1ccccc12 (some centres undefined)
IC50 at 72 h [2]: 14.3 µM | IC50 [3]: 18.3 µM | IC50 [4]: 7.5 µM | IC50 at 72 h [5]: 20.8 µM

SMILES: CN1CCN(Cc2ccc([N+](=O)[O-])cc2)P12=NP(N1CCCC1)(N1CCCC1)=NP(N1CCCC1)(N1CCCC1)=N2 (centres undefined)
Activity [11]: 30% | Activity [12]: 70%

SMILES: Cc1ccccc1/C=C1\CN(/C=C/c2ccccc2)C[C@]2(C1=O)[C@H](c1ccccc1C)[C@@H](Cc1ccccc1)N[C@]21C(=O)Nc2ccccc21
IC50 [13]: 21 µM

SMILES: COC1=CC2OC34Oc5cc(OC)ccc5C=C3CCCC4C=C2C=C1 (centres undefined)
GI50 [14]: < 19 µM

SMILES: Cc1ccc2c(c1)C1(CC(=O)C=NO1)C(=O)N2 (centres undefined)
IC50 [15]: > 30 µM | IC50 [16]: 340 nM | IC50 [17]: 13.2 µM | IC50 [18]: > 100 µM | IC50 [19]: > 100 µM

SMILES: N#Cc1c(-c2ccc(Cl)cc2)c2c(n(CC(=O)O)c1=O)N(c1ccc(N)cc1)C1(CCCCC1)S2
IC50 [20]: 12.6 µg/mL (≈ 24.9 µM) | IC50 [21]: 9.29 µg/mL (≈ 18.3 µM)

SMILES: O=C1N(C2CCCCC2)C(=O)C2(CC(c3ccccc3O)=NCCO2)N1C1CCCCC1 (centres undefined)
IC50 [22]: 66.3 µM | IC50 [23]: 97.1 µM

SMILES: CCNC(=O)[C@H]1[C@H](c2ccc([N+](=O)[O-])cc2)[C@@]2(C(=O)Cc3ccccc32)[C@H](CC(C)C)N1[C@H](c1ccccc1)[C@@H](O)c1ccccc1
IC50 [27]: 4.8 µM | IC50 [28]: 3.9 µM | IC50 [29]: 14.9 µM | IC50 [30]: 8.2 µM

SMILES: CN1CCN(Cc2ccc([N+](=O)[O-])cc2)P12=NP(N1CCCCC1)(N1CCCCC1)=NP(N1CCCCC1)(N1CCCCC1)=N2 (centres undefined)
Activity [11]: 30% | Activity [12]: 70%

SMILES: O=C1/C(=C/c2ccccc2)CN(/C=C/c2ccccc2)C[C@@]12[C@H](c1ccccc1)[C@@H](Cc1ccccc1)N[C@]21C(=O)Nc2ccccc21
IC50 [13]: 19 µM

SMILES: CCOc1cccc2c1OCC1=CCC3(O[C@H]12)C(=O)c1ccccc1C3=O
IC50 [42]: 20 µM | IC50 [43]: 27.5 µM | IC50 [44]: 55 µM | IC50 [45]: 15 µM

SMILES: Clc1ccc(C2=NO[C@@]3(CCCCO3)[C@H]2Br)cc1
IC50 [49]: 51.2 µM | IC50 [50]: 53.1 µM | IC50 [51]: 56.7 µM | IC50 [52]: 48.1 µM

Source: ChEMBL document CHEMBL5233269, “Anticancer potential of spirocompounds in medicinal chemistry: A pentennial expedition” (Eur J Med Chem, 2021)
